From patent publication US9302999B2, “Substituted triazoles as herbicides” (E. I. DU PONT DE NEMOURS AND COMPANY, priority 2012, dated 2016)

Tests used:
Assay type in all cases: in vivo
[1] = test system: bromegrass, downy (downy bromegrass, Bromus tectorum); test: Test D pre-/postemergence: bromegrass, downy
How it was run: (§1)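 Species were sown in silt loam and sprayed preemergence, or grown in peat/vermiculite medium and sprayed postemergence at the 1- to 4-leaf stage (2–18 cm), with compounds in a surfactant-containing solvent. Injury was visually rated against untreated controls after 14–21 days, on a 0 (no effect) to 100 (complete control) scale.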

[2] = test system: pigweed (Amaranthus retroflexus); test: Test D pre-/postemergence: pigweed
How it was run: as §1

[3] = test system: buckwheat, wild (wild buckwheat, Polygonum convolvulus); test: Test D pre-/postemergence: buckwheat, wild
How it was run: as §1

[4] = test system: wheat, winter (winter wheat, Triticum aestivum); test: Test D pre-/postemergence: wheat, winter
How it was run: as §1

[5] = test system: foxtail, giant (giant foxtail, Setaria faberii); test: Test F pre-/postemergence: foxtail, giant; conditions: Preemergence
How it was run: (§2)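 Preemergence treatment of seeds sown in silt loam soil, and postemergence treatment of plants 2–18 cm tall (1- to 4-leaf stage), with compounds in non-phytotoxic solvent plus surfactant. Greenhouse 14–21 days, then visual rating versus controls on 0–100 scale (100 = complete control).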

[6] = test system: foxtail, green (green foxtail Setaria viridis); test: Test F pre-/postemergence: foxtail, green; conditions: Preemergence
How it was run: as §2

[7] = test system: goosegrass (Eleusine indica); test: Test F pre-/postemergence: goosegrass; conditions: Preemergence
How it was run: as §2

[8] = test system: sandbur (southern sandbur, Cenchrus echinatus); test: Test F pre-/postemergence: sandbur
How it was run: as §2

[9] = test system: morningglory (Ipomoea coccinea); test: Test F pre-/postemergence: morningglory; conditions: Preemergence
How it was run: as §2

[10] = test system: johnsongrass (Sorghum halepense); test: Test F pre-/postemergence: johnsongrass; conditions: Preemergence
How it was run: as §2

[11] = Postemergence, 31 g ai/ha, scale 0 to 100 (0 no effect, 100 complete control)
[12] = Postemergence, 62 g ai/ha, scale 0 to 100 (0 no effect, 100 complete control)
[13] = Postemergence, 125 g ai/ha, scale 0 to 100, 0 no effect, 100 complete control
[14] = Postemergence, 16 g ai/ha, scale 0 to 100
[15] = Preemergence, 16 g ai/ha, scale 0 to 100, 0 no effect, 100 complete control
[16] = Preemergence, 31 g ai/ha, scale 0 to 100, 0 no effect, 100 complete control
[17] = Preemergence, 62 g ai/ha, scale 0 to 100
[18] = Preemergence, 125 g ai/ha, scale 0 to 100
[19] = 16 g ai/ha, scale 0 to 100, 0 no effect, 100 complete control
[20] = 31 g ai/ha, scale 0 to 100, 0 no effect, 100 complete control
[21] = Preemergence, 250 g ai/ha, scale 0 to 100

SMILES: Cc1nn(-c2ccc(C(F)(F)F)c(F)c2)nc1Oc1ccnc(C(F)(F)F)c1 [Compound 148]
- Plant response rating: Bromegrass, Downy [1, 11]: 5
- Plant response rating: Bromegrass, Downy [1, 12]: 15
- Plant response rating: Bromegrass, Downy [1, 13]: 20
- Plant response rating, Bromegrass, Downy [1, 14]: 5
- Plant response rating, Bromegrass, Downy [1, 15]: 0
- Plant response rating, Bromegrass, Downy [1, 16]: 0
- Plant response rating, Bromegrass, Downy [1, 17]: 10
- Plant response rating, Bromegrass, Downy [1, 18]: 20
- Plant response rating: Pigweed [2, 11]: 85
- Plant response rating: Pigweed [2, 12]: 95
- Plant response rating: Pigweed [2, 13]: 95
- Plant response rating, Pigweed [2, 14]: 70
- Plant response rating, Pigweed [2, 15]: 15
- Plant response rating, Pigweed [2, 16]: 70
- Plant response rating, Pigweed [2, 17]: 85
- Plant response rating, Pigweed [2, 18]: 100
- Plant response rating: Buckwheat, Wild [3, 11]: 60
- Plant response rating: Buckwheat, Wild [3, 12]: 75
- Plant response rating: Buckwheat, Wild [3, 13]: 70
- Plant response rating, Buckwheat, Wild [3, 14]: 60
- Plant response rating, Buckwheat, Wild [3, 15]: 20
- Plant response rating, Buckwheat, Wild [3, 16]: 30
- Plant response rating, Buckwheat, Wild [3, 17]: 65
- Plant response rating, Buckwheat, Wild [3, 18]: 50
- Plant response rating: Wheat, Winter [4, 11]: 10
- Plant response rating: Wheat, Winter [4, 12]: 15
- Plant response rating: Wheat, Winter [4, 13]: 25
- Plant response rating, Wheat, Winter [4, 14]: 10
- Plant response rating, Wheat, Winter [4, 15]: 0
- Plant response rating, Wheat, Winter [4, 16]: 5
- Plant response rating, Wheat, Winter [4, 17]: 0
- Plant response rating, Wheat, Winter [4, 18]: 10
- Plant response rating, Foxtail, Giant [5, 19]: 25
- Plant response rating, Foxtail, Giant [5, 20]: 95
- Plant response rating, Foxtail, Giant ([5]; 62 g ai/ha, scale 0 to 100): 100
- Plant response rating, Foxtail, Giant ([5]; 125 g ai/ha, scale 0 to 100): 100
- Plant response rating, Foxtail, Giant ([5]; 250 g ai/ha, scale 0 to 100): 100
- Plant response rating, Foxtail, Green [6, 19]: 35
- Plant response rating, Foxtail, Green [6, 20]: 100
- Plant response rating, Foxtail, Green ([6]; 62 g ai/ha, scale 0 to 100): 100
- Plant response rating, Foxtail, Green ([6]; 125 g ai/ha, scale 0 to 100): 100
- Plant response rating, Foxtail, Green ([6]; 250 g ai/ha, scale 0 to 100): 100
- Plant response rating, Goosegrass [7, 19]: 25
- Plant response rating, Goosegrass [7, 20]: 98
- Plant response rating, Goosegrass ([7]; 62 g ai/ha, scale 0 to 100): 100
- Plant response rating, Goosegrass ([7]; 125 g ai/ha, scale 0 to 100): 100
- Plant response rating, Goosegrass ([7]; 250 g ai/ha, scale 0 to 100): 100
- Plant response rating, Sandbur [8, 15]: 0
- Plant response rating, Sandbur [8, 16]: 0
- Plant response rating, Sandbur [8, 18]: 70
- Plant response rating, Sandbur [8, 21]: 100
- Plant response rating, Morningglory [9, 19]: 0
- Plant response rating, Morningglory [9, 20]: 30
- Plant response rating, Morningglory ([9]; 125 g ai/ha, scale 0 to 100): 50
- Plant response rating, Morningglory ([9]; 250 g ai/ha, scale 0 to 100): 70
- Plant response rating, Johnsongrass [10, 19]: 0
- Plant response rating, Johnsongrass [10, 20]: 20
- Plant response rating, Johnsongrass ([10]; 62 g ai/ha, scale 0 to 100): 20
- Plant response rating, Johnsongrass ([10]; 125 g ai/ha, scale 0 to 100): 30
- Plant response rating, Johnsongrass ([10]; 250 g ai/ha, scale 0 to 100): 40

SMILES: Cc1nn(-c2ccc(F)cc2F)nc1Oc1ccnc(C(F)(F)F)c1 [Compound 146]
- Plant response rating, Foxtail, Giant [5, 19]: 20
- Plant response rating, Foxtail, Giant [5, 20]: 20
- Plant response rating, Foxtail, Giant ([5]; 62 g ai/ha, scale 0 to 100): 90
- Plant response rating, Foxtail, Giant ([5]; 125 g ai/ha, scale 0 to 100): 98
- Plant response rating, Foxtail, Giant ([5]; 250 g ai/ha, scale 0 to 100): 100
- Plant response rating, Foxtail, Green [6, 19]: 20
- Plant response rating, Foxtail, Green [6, 20]: 20
- Plant response rating, Foxtail, Green ([6]; 62 g ai/ha, scale 0 to 100): 50
- Plant response rating, Foxtail, Green ([6]; 125 g ai/ha, scale 0 to 100): 100
- Plant response rating, Foxtail, Green ([6]; 250 g ai/ha, scale 0 to 100): 100
- Plant response rating, Goosegrass [7, 19]: 0
- Plant response rating, Goosegrass [7, 20]: 40
- Plant response rating, Goosegrass ([7]; 62 g ai/ha, scale 0 to 100): 70
- Plant response rating, Goosegrass ([7]; 125 g ai/ha, scale 0 to 100): 75
- Plant response rating, Goosegrass ([7]; 250 g ai/ha, scale 0 to 100): 98
- Plant response rating, Sandbur [8, 15]: 0
- Plant response rating, Sandbur [8, 16]: 0
- Plant response rating, Sandbur [8, 18]: 25
- Plant response rating, Sandbur [8, 21]: 70
- Plant response rating, Morningglory [9, 19]: 0
- Plant response rating, Morningglory [9, 20]: 0
- Plant response rating, Morningglory ([9]; 125 g ai/ha, scale 0 to 100): 0
- Plant response rating, Morningglory ([9]; 250 g ai/ha, scale 0 to 100): 25
- Plant response rating, Johnsongrass [10, 19]: 0
- Plant response rating, Johnsongrass [10, 20]: 50
- Plant response rating, Johnsongrass ([10]; 62 g ai/ha, scale 0 to 100): 60
- Plant response rating, Johnsongrass ([10]; 125 g ai/ha, scale 0 to 100): 70
- Plant response rating, Johnsongrass ([10]; 250 g ai/ha, scale 0 to 100): 100

SMILES: CCCc1nn(-c2ccc(F)c(F)c2)nc1Oc1ccnc(C(F)(F)F)c1 [Compound 172]
- Plant response rating, Foxtail, Giant [5, 20]: 100
- Plant response rating, Foxtail, Giant ([5]; 125 g ai/ha, scale 0 to 100): 100
- Plant response rating, Foxtail, Giant ([5]; 250 g ai/ha, scale 0 to 100): 100
- Plant response rating, Foxtail, Green [6, 20]: 75
- Plant response rating, Foxtail, Green ([6]; 125 g ai/ha, scale 0 to 100): 100
- Plant response rating, Foxtail, Green ([6]; 250 g ai/ha, scale 0 to 100): 100
- Plant response rating, Goosegrass [7, 20]: 98
- Plant response rating, Goosegrass ([7]; 125 g ai/ha, scale 0 to 100): 100
- Plant response rating, Goosegrass ([7]; 250 g ai/ha, scale 0 to 100): 100
- Plant response rating, Sandbur ([8]; Postemergence, 250 g ai/ha, scale 0 to 100): 40
- Plant response rating, Sandbur ([8]; Postemergence, 31 g ai/ha, scale 0 to 100): 20
- Plant response rating, Sandbur ([8]; Postemergence, 125 g ai/ha, scale 0 to 100): 30
- Plant response rating, Sandbur [8, 16]: 5
- Plant response rating, Sandbur [8, 18]: 70
- Plant response rating, Sandbur [8, 21]: 100
- Plant response rating, Morningglory [9, 20]: 0
- Plant response rating, Morningglory ([9]; 125 g ai/ha, scale 0 to 100): 5
- Plant response rating, Morningglory ([9]; 250 g ai/ha, scale 0 to 100): 5
- Plant response rating, Johnsongrass [10, 20]: 50
- Plant response rating, Johnsongrass ([10]; 125 g ai/ha, scale 0 to 100): 75
- Plant response rating, Johnsongrass ([10]; 250 g ai/ha, scale 0 to 100): 100

SMILES: CCc1nn(-c2ccc(F)c(F)c2)nc1Oc1ccnc(C(F)(F)F)c1 [Compound 171]
- Plant response rating, Foxtail, Giant [5, 19]: 40
- Plant response rating, Foxtail, Giant [5, 20]: 60
- Plant response rating, Foxtail, Giant ([5]; 62 g ai/ha, scale 0 to 100): 100
- Plant response rating, Foxtail, Giant ([5]; 125 g ai/ha, scale 0 to 100): 100
- Plant response rating, Foxtail, Giant ([5]; 250 g ai/ha, scale 0 to 100): 100
- Plant response rating, Foxtail, Green [6, 19]: 20
- Plant response rating, Foxtail, Green [6, 20]: 50
- Plant response rating, Foxtail, Green ([6]; 62 g ai/ha, scale 0 to 100): 95
- Plant response rating, Foxtail, Green ([6]; 125 g ai/ha, scale 0 to 100): 100
- Plant response rating, Foxtail, Green ([6]; 250 g ai/ha, scale 0 to 100): 100
- Plant response rating, Goosegrass [7, 19]: 70
- Plant response rating, Goosegrass [7, 20]: 80
- Plant response rating, Goosegrass ([7]; 62 g ai/ha, scale 0 to 100): 100
- Plant response rating, Goosegrass ([7]; 125 g ai/ha, scale 0 to 100): 100
- Plant response rating, Goosegrass ([7]; 250 g ai/ha, scale 0 to 100): 100
- Plant response rating, Sandbur [8, 15]: 0
- Plant response rating, Sandbur [8, 16]: 5
- Plant response rating, Sandbur [8, 18]: 50
- Plant response rating, Sandbur [8, 21]: 50
- Plant response rating, Morningglory [9, 19]: 0
- Plant response rating, Morningglory [9, 20]: 0
- Plant response rating, Morningglory ([9]; 125 g ai/ha, scale 0 to 100): 35
- Plant response rating, Morningglory ([9]; 250 g ai/ha, scale 0 to 100): 65
- Plant response rating, Johnsongrass [10, 19]: 0
- Plant response rating, Johnsongrass [10, 20]: 0
- Plant response rating, Johnsongrass ([10]; 62 g ai/ha, scale 0 to 100): 10
- Plant response rating, Johnsongrass ([10]; 125 g ai/ha, scale 0 to 100): 65
- Plant response rating, Johnsongrass ([10]; 250 g ai/ha, scale 0 to 100): 75
